In US9910031B2, “Compositions and methods for modulating c-Rel-dependent cytokine production” (Synta Pharmaceuticals Corporation, priority 2003, dated 2018):

Assays:
Type in all cases: cell-based, human
[1] = tested on: p65; assay: ELISA based transcriptional factor-DNA binding activity assay, THP-1 nuclear extracts, p65; conditions: IFN-γ/LPS, 500 nm, 3 hrs
Experimental: Nuclear extracts were prepared from IFN-γ-primed THP-1 cells that had been treated with or without SAC and incubated in the presence or absence of 1 μM Compound 1 or 10 mM ASA. Isolation of nuclear extracts was accomplished by first suspending THP-1 cells in 20 volumes of buffer A containing 10 mM KCl, 10 mM HEPES (pH 7.9), 1 mM MgCl2, 1 mM dithiothreitol (DTT), 0.1% Nonidet p40 (NP-40), and 0.5 mM phenylmethylsulfonyl fluoride (PMSF) and then homogenizing and centrifuging at 10,000 rpm at 4° C. for 5 min. Nuclear pellets were then suspended in buffer C containing 400 mM NaCl, 20 mM HEPES pH 7.9), 15 mM MgCl2, 0.2 mM EDTA, 1 mM DTT, 25% glycerol, 1 mM PMSF, and 10 μg of leupeptin, 20 μg of pepstatin, and 10 μg of antipain per ml, incubated for 30 min at 4° C., and centrifuge at 14,000 rpm for […]. The supernatants were dialyzed against buffer D containing 100 mM NaCl, 20 mM HEPES (pH 7.9), 20% glycerol, 1 mM PMSF, and 1 mM DTT.
To understand the action of Compound 2 in NF-κB binding, several NF-κB family members, p50, c-Rel and p65 were investigated using an ELISA based transcriptional factor-DNA binding activity assay system. […]

[2] = tested on: IκBβ; assay: Inducible degradation of IκBβ, Western blot and FACS analysis; conditions: THP-1 and RAW267.4 cells, IFN-γ/LPS or IFN-γ/SAC, 500 nM, 30 min and 2 hrs
Experimental: IκB degradation is one of the steps in the signaling pathway of NFκB dependent genes. The activity of Compound 2 in inducible degradation of IκBα □ and IκBβ was investigated in THP-1 cells using Western blot and FACS analysis. […] Similar results were observed from the Compound 2 pre-treatment samples in which Compound 2 was added […] before stimulation.

[3] = tested on: IL-12 p35 mRNA; assay: Northern blot of IL-12 p35 mRNA in IFN-γ/SAC-stimulated THP-1 cells; conditions: THP-1, IFN-γ/SAC, 1 μM Compound 1
Experimental: Northern blot analysis was performed to examine the mRNA levels of IL-12 p35 and p40. Human PBMC and the human monocyte cell line THP-1 cells were stimulated with IFN-γ/SAC in the presence or absence of Compound 1. Human PBMC were isolated by centrifugation using Ficoll-Paque (Pharmacia Biotech, Uppsala, Sweden) and prepared in RPMI medium supplemented with 10% fetal calf serum (FCS), 100 U/ml penicillin, and 100 μg/ml streptomycin, in a 96-well plate with 5×10^5 cells/well. The cells were then primed with IFN-γ (100 U/ml) and followed by 0.01% SAC or 1 μg/ml LPS, in the presence of different concentrations of Compound 2 or other compounds. The test compounds were prepared in DMSO and the final DMSO concentration was adjusted to 0.25% in all cultures, including the compound-free control. Cell-free supernatants were taken 18 h later for the measurement of cytokines. The THP-1 cells were obtained from American Type Culture Collection (Manassas, Va.) and were cultured in RPMI 1640 (ATCC, Manassas, Va.), supplemented with 10% FCS (ATCC, Manassas, Va.), and 1% penicillin/Streptomycin (Gibco-BRL, New York, N.Y.). Total RNA was isolated and subjected to Northern blot analysis using IL-12 p35 and p40 cDNA probes. We first examined the kinetics of mRNA accumulation in cultures of hPBMC and THP-1 cells primed with IFN-γ followed by SAC stimulation in the presence or absence of 1 μM Compound 1.

Row | Structure (SMILES) | binding activity of p65 [1] | amount of IκBβ in the cytoplasm, treated vs untreated [2] | IL-12 p35 mRNA [3]
1 | Cc1cccc(C=NNc2cc(N3CCOCC3)nc(OCCc3ccccn3)n2)c1 [Compound 2, N-(3-methyl-benzylidene)-N′-[6-morpholin-4-yl-2-(2-pyridin-2-yl-ethoxy)-pyrimidin-4-yl]-hydrazine] | increased binding activity | no significant difference | 
2 | C(=NNc1nc(OCCc2ccccn2)nc(N2CCOCC2)n1)c1c[nH]c2ccccc12 [Compound 1, N-(1H-indol-3-ylmethylene)-N′-[4-morpholin-4-yl-6-(2-pyridin-2-yl-ethoxy)-[1,3,5]triazin-2-yl]-hydrazine] |  |  | undetectable
